Values joined by “and” are separate entries in the source; they are usually repeats but may differ in a detail not shown here. Equal values may be shown once.
Details: Fluid (supercritical or subcritical phases); for viscosity: Vibrating wire viscometry; for mass density: Buoyancy - hydrostatic balance with magnetic suspension - one sinker

CCCC [butane]
Details	mass density	viscosity
428.09 K, 5150.2 kPa	–	0.04428 mPa·s
428.1 K, 796.14 kPa	14.038 kg/m3	0.01066 mPa·s
428.1 K, 796.19 kPa	14.041 kg/m3	0.01066 mPa·s
428.1 K, 904.9 kPa	16.138 kg/m3	0.01069 mPa·s
428.1 K, 1964.1 kPa	40.163 kg/m3	0.01117 mPa·s
428.1 K, 4625.9 kPa	341.66 kg/m3	0.04038 mPa·s
428.11 K, 131.61 kPa	2.1741 kg/m3	0.01052 mPa·s
428.11 K, 131.64 kPa	2.1741 kg/m3	0.01052 mPa·s
428.11 K, 904.86 kPa	16.141 kg/m3	0.01069 mPa·s
428.11 K, 1964.3 kPa	40.167 kg/m3	0.01118 mPa·s
428.11 K, 4626.6 kPa	341.66 kg/m3	0.04035 mPa·s
428.11 K, 4626.8 kPa	341.65 kg/m3	0.04033 mPa·s
428.12 K, 685.03 kPa	11.939 kg/m3	0.01063 mPa·s
428.12 K, 2306.2 kPa	49.889 kg/m3 and 49.887 kg/m3	0.01144 mPa·s
428.12 K, 3964.9 kPa	218.37 kg/m3	0.02262 mPa·s
428.12 K, 3984.8 kPa	246.5 kg/m3	0.02576 mPa·s
428.12 K, 3984.9 kPa	246.49 kg/m3	0.02577 mPa·s
428.13 K, 480.91 kPa	8.2126 kg/m3	0.01059 mPa·s
428.13 K, 578.67 kPa	9.9774 kg/m3	0.01061 mPa·s
428.13 K, 684.54 kPa	11.929 kg/m3	0.01063 mPa·s
428.13 K, 2624.6 kPa	60.353 kg/m3	0.01177 mPa·s
428.13 K, 2624.7 kPa	60.36 kg/m3	0.01177 mPa·s
428.13 K, 2862.9 kPa	69.476 kg/m3	0.01209 mPa·s
428.13 K, 3655.2 kPa	119.22 kg/m3	0.01443 mPa·s
428.13 K, 3964.8 kPa	218.33 kg/m3	0.02263 mPa·s
428.13 K, 3990.1 kPa	251.58 kg/m3 and 251.63 kg/m3	0.02637 mPa·s and 0.02638 mPa·s
428.13 K, 5948.9 kPa	378 kg/m3	0.04846 mPa·s
428.13 K, 5949.6 kPa	378.01 kg/m3 and 378.02 kg/m3	0.04837 mPa·s and 0.04844 mPa·s
428.14 K, 480.81 kPa	8.2112 kg/m3	0.01059 mPa·s
428.14 K, 578.76 kPa	9.9803 kg/m3	0.01061 mPa·s
428.14 K, 1041.2 kPa	18.856 kg/m3	0.01073 mPa·s
428.14 K, 2862.8 kPa	69.471 kg/m3	0.01209 mPa·s
428.14 K, 3427.1 kPa	99.322 kg/m3	0.01338 mPa·s
428.14 K, 3655.7 kPa	119.23 kg/m3	0.01444 mPa·s
428.14 K, 4145.9 kPa	304.6 kg/m3	0.03374 mPa·s
428.14 K, 4146.2 kPa	304.61 kg/m3	0.03373 mPa·s
428.14 K, 30018 kPa	498.2 kg/m3	0.09505 mPa·s
428.14 K, 30022 kPa	498.2 kg/m3	0.09486 mPa·s
428.14 K, 30023 kPa	498.21 kg/m3	0.09498 mPa·s
428.15 K, 1040.7 kPa	18.847 kg/m3	0.01073 mPa·s
428.15 K, 3263.7 kPa	88.854 kg/m3	0.01288 mPa·s
428.15 K, 3427.2 kPa	99.316 kg/m3	0.01337 mPa·s
428.15 K, 4067.3 kPa	289 kg/m3	0.03129 mPa·s
428.15 K, 4067.5 kPa	288.98 kg/m3	0.03132 mPa·s
428.15 K, 12773 kPa	440.28 kg/m3	0.06754 mPa·s
428.15 K, 17075 kPa	460.12 kg/m3	0.07551 mPa·s
428.15 K, 17077 kPa	460.12 kg/m3	0.07561 mPa·s
428.16 K, 62.1 kPa	1.0176 kg/m3	0.01051 mPa·s
428.16 K, 3263.8 kPa	88.856 kg/m3	0.01289 mPa·s
428.16 K, 7467.1 kPa	399.68 kg/m3	0.05418 mPa·s
428.16 K, 7467.5 kPa	399.69 kg/m3	0.05413 mPa·s
428.16 K, 9661.1 kPa	420.21 kg/m3	0.06045 mPa·s
428.16 K, 9662.3 kPa	420.22 kg/m3	0.06047 mPa·s
428.16 K, 12732 kPa	440.05 kg/m3	0.06741 mPa·s
428.16 K, 12735 kPa	440.06 kg/m3	0.06744 mPa·s
428.17 K, 62.1 kPa	1.0183 kg/m3	0.01051 mPa·s
428.17 K, 3976.1 kPa	230.45 kg/m3	0.02394 mPa·s
428.17 K, 7466.2 kPa	399.67 kg/m3	0.05411 mPa·s
428.18 K, 62.1 kPa	1.0176 kg/m3	0.01051 mPa·s
428.18 K, 1098.5 kPa	20.025 kg/m3	0.01075 mPa·s
428.18 K, 1099.1 kPa	20.038 kg/m3	0.01075 mPa·s
428.18 K, 3790.9 kPa	137.62 kg/m3	0.01558 mPa·s
428.18 K, 3953.3 kPa	199.18 kg/m3	0.02063 mPa·s
428.18 K, 3976.3 kPa	230.48 kg/m3	0.02395 mPa·s
428.18 K, 4312 kPa	322.22 kg/m3	0.03673 mPa·s
428.18 K, 4312.4 kPa	322.24 kg/m3 and 322.25 kg/m3	0.03673 mPa·s and 0.03668 mPa·s
428.19 K, 3883.8 kPa	159.22 kg/m3	0.01712 mPa·s
428.19 K, 3884.1 kPa	159.21 kg/m3	0.01712 mPa·s
428.19 K, 3938.7 kPa	185.24 kg/m3	0.01931 mPa·s
428.19 K, 3939.2 kPa	185.3 kg/m3	0.01933 mPa·s
428.19 K, 3953.5 kPa	199.12 kg/m3	0.02064 mPa·s
428.2 K, 3793.8 kPa	137.58 kg/m3	0.01557 mPa·s
428.2 K, 4030 kPa	274.89 kg/m3	0.02934 mPa·s
428.2 K, 4030.1 kPa	274.9 kg/m3	0.02934 mPa·s
428.2 K, 22973 kPa	480.02 kg/m3	0.08495 mPa·s
428.21 K, 1539.8 kPa	29.634 kg/m3	0.01094 mPa·s
428.21 K, 1540.1 kPa	29.642 kg/m3	0.01093 mPa·s
428.21 K, 22974 kPa	480.02 kg/m3	0.08503 mPa·s and 0.08492 mPa·s
428.22 K, 3107.8 kPa	80.455 kg/m3	0.01252 mPa·s
428.23 K, 3108.6 kPa	80.486 kg/m3	0.01253 mPa·s
428.34 K, 3805.1 kPa	138.83 kg/m3	0.01567 mPa·s
428.39 K, 3806.5 kPa	138.8 kg/m3	0.01569 mPa·s
448.09 K, 4846.2 kPa	174.16 kg/m3	0.01886 mPa·s
448.11 K, 5054.5 kPa	201.47 kg/m3	0.02122 mPa·s
448.11 K, 5054.8 kPa	201.47 kg/m3	0.02124 mPa·s
448.11 K, 6144.8 kPa	304.18 kg/m3	0.0341 mPa·s
448.11 K, 6145 kPa	304.17 kg/m3	0.0341 mPa·s
448.13 K, 4161.6 kPa	114.81 kg/m3	0.01481 mPa·s and 0.01479 mPa·s
448.13 K, 4847 kPa	174.1 kg/m3	0.01885 mPa·s
448.13 K, 5203.2 kPa	222.02 kg/m3	0.02331 mPa·s
448.13 K, 5203.5 kPa	222.03 kg/m3	0.02333 mPa·s
448.13 K, 7189.8 kPa	340.36 kg/m3	0.04055 mPa·s
448.14 K, 7191 kPa	340.37 kg/m3	0.04061 mPa·s
448.14 K, 18184 kPa	440.74 kg/m3	0.06811 mPa·s
448.14 K, 18187 kPa	440.74 kg/m3	0.06813 mPa·s
448.14 K, 29460 kPa	478.91 kg/m3	0.08497 mPa·s
448.15 K, 220.17 kPa	3.4915 kg/m3	0.01102 mPa·s
448.15 K, 618.43 kPa	10.135 kg/m3	0.0111 mPa·s
448.15 K, 618.6 kPa	10.141 kg/m3	0.01109 mPa·s
448.15 K, 807.6 kPa	13.453 kg/m3	0.01114 mPa·s
448.15 K, 1661.9 kPa	30.078 kg/m3	0.01146 mPa·s
448.15 K, 3073.3 kPa	66.943 kg/m3	0.01257 mPa·s
448.15 K, 5551.9 kPa	263.05 kg/m3	0.02811 mPa·s
448.15 K, 5553.7 kPa	263.02 kg/m3	0.02811 mPa·s
448.15 K, 11528 kPa	400.23 kg/m3	0.05478 mPa·s
448.15 K, 11529 kPa	400.23 kg/m3	0.05477 mPa·s
448.15 K, 14319 kPa	420.46 kg/m3	0.06101 mPa·s
448.15 K, 29472 kPa	478.91 kg/m3	0.08489 mPa·s
448.16 K, 220.38 kPa	3.4965 kg/m3	0.01101 mPa·s
448.16 K, 430.17 kPa	6.9362 kg/m3	0.01106 mPa·s
448.16 K, 431.02 kPa	6.95 kg/m3	0.01106 mPa·s
448.16 K, 508.5 kPa	8.2591 kg/m3	0.01107 mPa·s
448.16 K, 509.69 kPa	8.28 kg/m3	0.01107 mPa·s
448.16 K, 807.76 kPa	13.456 kg/m3	0.01115 mPa·s
448.16 K, 1662.2 kPa	30.086 kg/m3	0.01146 mPa·s
448.16 K, 2073.7 kPa	39.305 kg/m3	0.01169 mPa·s
448.16 K, 2511.8 kPa	50.321 kg/m3	0.01201 mPa·s
448.16 K, 2512.1 kPa	50.329 kg/m3	0.012 mPa·s
448.16 K, 3073.3 kPa	66.941 kg/m3	0.01257 mPa·s
448.16 K, 6551.1 kPa	321.12 kg/m3	0.03695 mPa·s
448.16 K, 6551.4 kPa	321.12 kg/m3	0.03694 mPa·s
448.16 K, 8139.4 kPa	359.98 kg/m3	0.04474 mPa·s
448.16 K, 8140.6 kPa	359.99 kg/m3	0.04466 mPa·s
448.16 K, 23152 kPa	460.08 kg/m3	0.07601 mPa·s
448.17 K, 1158.4 kPa	19.932 kg/m3	0.01125 mPa·s
448.17 K, 2073 kPa	39.287 kg/m3	0.01169 mPa·s
448.17 K, 4498.3 kPa	138.72 kg/m3	0.01627 mPa·s
448.17 K, 5346.6 kPa	240.34 kg/m3	0.02533 mPa·s
448.17 K, 9537.4 kPa	380.12 kg/m3	0.04948 mPa·s
448.17 K, 9538.6 kPa	380.13 kg/m3	0.0494 mPa·s
448.17 K, 14321 kPa	420.46 kg/m3	0.06093 mPa·s
448.17 K, 23154 kPa	460.09 kg/m3	0.07593 mPa·s
448.18 K, 3433.7 kPa	79.735 kg/m3	0.01307 mPa·s
448.18 K, 3433.9 kPa	79.739 kg/m3	0.01308 mPa·s
448.18 K, 3747.8 kPa	92.905 kg/m3	0.01367 mPa·s
448.18 K, 4498.1 kPa	138.68 kg/m3	0.01625 mPa·s
448.18 K, 5346.7 kPa	240.34 kg/m3	0.02534 mPa·s
448.19 K, 3747.9 kPa	92.91 kg/m3	0.01367 mPa·s
448.23 K, 4727 kPa	160.07 kg/m3	0.01777 mPa·s
448.23 K, 4727.1 kPa	160.07 kg/m3	0.01776 mPa·s
448.27 K, 5784.6 kPa	281.65 kg/m3	0.03063 mPa·s
448.28 K, 5785.1 kPa	281.66 kg/m3	0.03066 mPa·s

— the NIST ThermoML archive (doi:10.1021/acs.jced.5b00654)
